{"source": "paper PMC4907692", "about": "“Engineering vanilloid-sensitivity into the rat TRPV2 channel” (eLife, 2016)", "molecules": {"B1": {"name": "double-knot toxin (protein, UniProt P0CH43 1-79, looked up)", "Tau-theraphotoxin-Hs1a": "DCAKEGEVCSWGKKCCDLDNFYCPMEFIPHCKKYKPYVPVTTNCAKEGEVCGWGSKCCHGLDCPLAFIPYCEKYRGRND"}}, "key": {"[1]": {"target": "T1, TRPV1 QM (S512F, M547L, T550L, E570Q) (Rattus norvegicus, UniProt O35433, E570Q/M547L/S512F/T550L)", "T1 construct": "expressed in transfected cells; host or cells: Xenopus oocytes (cRNA injection)", "T1 sequence (O35433 whole entry S512F/M547L/T550L/E570Q)": "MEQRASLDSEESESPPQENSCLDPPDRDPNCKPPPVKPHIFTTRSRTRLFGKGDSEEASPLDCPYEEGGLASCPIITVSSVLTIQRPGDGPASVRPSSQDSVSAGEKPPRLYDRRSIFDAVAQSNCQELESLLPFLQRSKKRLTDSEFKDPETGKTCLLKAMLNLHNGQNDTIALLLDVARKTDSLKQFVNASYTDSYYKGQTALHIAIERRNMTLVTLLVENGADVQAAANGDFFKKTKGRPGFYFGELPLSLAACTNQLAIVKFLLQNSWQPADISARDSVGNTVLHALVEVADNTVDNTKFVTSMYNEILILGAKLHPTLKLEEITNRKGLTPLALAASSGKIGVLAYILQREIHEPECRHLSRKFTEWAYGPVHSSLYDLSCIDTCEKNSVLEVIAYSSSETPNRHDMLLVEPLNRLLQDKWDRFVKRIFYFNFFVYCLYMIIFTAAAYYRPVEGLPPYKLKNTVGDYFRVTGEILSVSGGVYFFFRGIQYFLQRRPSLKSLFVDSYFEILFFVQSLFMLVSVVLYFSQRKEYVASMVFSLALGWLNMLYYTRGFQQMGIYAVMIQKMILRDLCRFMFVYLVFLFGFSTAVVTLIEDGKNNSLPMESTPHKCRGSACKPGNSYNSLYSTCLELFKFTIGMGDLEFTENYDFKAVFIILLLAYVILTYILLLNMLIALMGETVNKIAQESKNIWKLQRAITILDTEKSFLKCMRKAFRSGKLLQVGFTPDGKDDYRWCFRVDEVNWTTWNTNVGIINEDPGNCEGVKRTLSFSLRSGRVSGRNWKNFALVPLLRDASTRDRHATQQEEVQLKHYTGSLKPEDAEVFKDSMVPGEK", "experiment": "Two-electrode voltage-clamp in Xenopus oocytes, TRPV1 QM", "assay_type": "cell-based", "conditions": "2 mM 2-APB", "text": "(§1) To further investigate the putative vanilloid binding pocket in TRPV1, we inspected the cryo-EM structure of TRPV1, looking for residues that are located nearby to the putative RTx density (Figure 1B; regions/residues highlighted in yellow) and that differ between TRPV1 and TRPV2 channels (Figure 3—figure supplement 1; regions highlighted in magenta). […] To quantify the contribution of each of these residues to TRPV1 channel activation by RTx under our experimental conditions, we mutated each to the corresponding residue in TRPV2. We then expressed each construct in oocytes and used the two electrode voltage-clamp technique to study activation by RTx and by the non-specific TRPV channel activator 2-APB. We recorded time courses for channel activation by each agonist while stepping the membrane potential from −60 to +60 mV every 3 s from a holding potential of 0 mV using an external recording solution containing 100 mM KCl (internal K^+ concentration in a healthy oocyte is 100 mM) (Figure 3A, left). We also recorded current-voltage (I-V) relations by stepping over a wider range of voltages in the absence and presence of activators, or in the presence of ruthenium red (RR), a non-specific inhibitor of TRP channels (Figure 3A, right). […]"}, "WT TRPV1": {"target": "T2, WT TRPV1 (Rattus norvegicus, UniProt O35433)", "T2 construct": "expressed in transfected cells; host or cells: Xenopus oocytes (cRNA injection, pGEM-HE)", "experiment": "Two-electrode voltage-clamp in Xenopus oocytes, WT TRPV1", "assay_type": "cell-based", "text": "To further investigate the putative vanilloid binding pocket in TRPV1, we inspected the cryo-EM structure of TRPV1, looking for residues that are located nearby to the putative RTx density (Figure 1B; regions/residues highlighted in yellow) and that differ between TRPV1 and TRPV2 channels (Figure 3—figure supplement 1; regions highlighted in magenta). […] To quantify the contribution of each of these residues to TRPV1 channel activation by RTx under our experimental conditions, we mutated each to the corresponding residue in TRPV2. We then expressed each construct in oocytes and used the two electrode voltage-clamp technique to study activation by RTx and by the non-specific TRPV channel activator 2-APB. We recorded time courses for channel activation by each agonist while stepping the membrane potential from −60 to +60 mV every 3 s from a holding potential of 0 mV using an external recording solution containing 100 mM KCl (internal K^+ concentration in a healthy oocyte is 100 mM) (Figure 3A, left). We also recorded current-voltage (I-V) relations by stepping over a wider range of voltages in the absence and presence of activators, or in the presence of ruthenium red (RR), a non-specific inhibitor of TRP channels (Figure 3A, right).\nThe WT rat TRPV1 and TRPV2 channels in the pcDNA3.1 vector were kindly provided by Dr. David Julius (UCSF) ([Caterina et al., 1997]; [Caterina et al., 1999]) and subcloned into the pGEM-HE vector ([Liman et al., 1992]). Mutations were introduced into rTRPV1 using a two-step PCR mutagenesis technique and the resulting constructs were verified by sequencing. All channel constructs were expressed in Xenopus oocytes and studied following 1–4 days incubation after cRNA injection (incubated at 17°C in 96 mM NaCl, 2 mM KCl, 5 mM HEPES, 1 mM MgCl2 and 1.8 mM CaCl2, 50 μg/ml gentamycin, pH 7.6 with NaOH) using the two-electrode voltage-clamp recording technique (OC-725C, Warner Instruments, Hamden, CT) with a 150 μl recording chamber. Data were filtered at 1–3 kHz and digitized at 20 kHz using pClamp software (Molecular Devices, Sunnyvale, CA). […]"}, "WT TRPV2": {"target": "T3, WT TRPV2 (Rattus norvegicus, UniProt Q9WUD2)", "T3 construct": "expressed in transfected cells; host or cells: Xenopus oocytes (cRNA injection, pGEM-HE)", "experiment": "Two-electrode voltage-clamp in Xenopus oocytes, WT TRPV2", "assay_type": "cell-based", "conditions": "4 mM 2-APB", "text": "as §1"}, "TRPV2": {"tested_on": "TRPV2", "parameters": "method as in Caterina et al., 1999", "conditions": "ref Caterina et al., 1999; cited from earlier work"}, "TRPV2 QM": {"target": "T4, TRPV2 QM (Rattus norvegicus, UniProt Q9WUD2, F472S/L507M/L510T/Q530E)", "T4 construct": "expressed in transfected cells; host or cells: Xenopus oocytes (cRNA injection)", "T4 sequence (Q9WUD2 1-761 F472S/L507M/L510T/Q530E)": "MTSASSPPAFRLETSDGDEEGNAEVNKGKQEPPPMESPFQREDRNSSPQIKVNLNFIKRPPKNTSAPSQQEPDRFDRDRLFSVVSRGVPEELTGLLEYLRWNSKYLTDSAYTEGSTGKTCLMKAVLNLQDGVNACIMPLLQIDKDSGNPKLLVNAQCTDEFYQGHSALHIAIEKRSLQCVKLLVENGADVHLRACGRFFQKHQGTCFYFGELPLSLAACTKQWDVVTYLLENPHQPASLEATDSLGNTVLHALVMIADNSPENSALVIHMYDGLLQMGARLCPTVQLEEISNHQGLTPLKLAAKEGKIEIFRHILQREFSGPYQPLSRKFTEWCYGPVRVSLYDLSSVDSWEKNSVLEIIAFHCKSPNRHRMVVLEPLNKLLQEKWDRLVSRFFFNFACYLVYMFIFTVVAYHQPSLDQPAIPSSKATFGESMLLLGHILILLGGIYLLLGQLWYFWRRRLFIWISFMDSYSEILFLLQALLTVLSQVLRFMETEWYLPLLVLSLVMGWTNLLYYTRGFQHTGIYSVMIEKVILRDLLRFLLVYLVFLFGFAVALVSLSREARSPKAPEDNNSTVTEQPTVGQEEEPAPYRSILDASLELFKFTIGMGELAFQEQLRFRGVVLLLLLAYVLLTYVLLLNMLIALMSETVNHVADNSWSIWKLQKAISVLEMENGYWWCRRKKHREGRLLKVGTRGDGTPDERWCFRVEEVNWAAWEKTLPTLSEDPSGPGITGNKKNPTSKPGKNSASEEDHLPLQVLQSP", "experiment": "Two-electrode voltage-clamp in Xenopus oocytes, TRPV2 QM", "assay_type": "cell-based", "conditions": "50 µM capsaicin", "text": "as §1"}, "[2]": {"tested_on": "full-length 1D4-tagged TRPV1", "experiment": "3H-RTx binding to S. cerevisiae membranes containing 1D4-tagged TRPV1", "parameters": "species or system rat", "conditions": "membranes, RTx binding in the presence of DkTx vs control", "text": "The polymodal activation of TRPV1 has been widely conceptualized using allosteric models wherein binding of activators (such as vanilloids, protons, DkTx or voltage) are allosterically coupled to opening of the pore ([Brauchi et al., 2004]; [Jara-Oseguera et al., 2016]; [Matta and Ahern, 2007]). The allosteric nature of these interactions has begun to be explored using electrophysiological measurements of channel function ([Jara-Oseguera et al., 2016]; [Yao et al., 2010]), but has thus far not been investigated biochemically. We therefore tested whether binding of DkTx can enhance the affinity of TRPV1 for RTx, which would be predicted by an allosteric model wherein the two activators promote opening by binding more tightly to the open state. For these experiments we used a 1D4-tagged TRPV1 construct where expression in S. cerevisiae was driven by a constitutive promoter and we performed binding assays on yeast membranes where the vanilloid would have free access to the channel protein (see Methods). Under these conditions, we measured a Kd for RTx binding to 1D4-tagged TRPV1 of 0.6 nM under control conditions, about ten fold higher affinity than what we measured in intact cells using GFP-tagged TRPV1. When we measured the concentration-dependence of RTx binding to 1D4-tagged TRPV1 in the presence of DkTx, we observed that the tarantula toxin enhanced the affinity for RTx by about 3-fold (Figure 2A). The effects of DkTx were concentration-dependent (Figure 2B) and were observed independent of whether the binding assay was performed at 37°C (our standard temperature) or at 30°C (Figure 2A).\nThe full-length TRPV1 and TRPV2 channels with 1D4 affinity tags (TETSQVAPA) on their C-termini were cloned into the YEpHIS vector and expressed in the BJ5457 strain of S. cerevisiae using the strong constitutively active PMA1 promoter, as previously described ([Moiseenkova-Bell et al., 2008]). After 48 hr of expression at 30°C in YPD media, cells were harvested by centrifugation and re-suspended in PBS buffer, supplemented with complete protease inhibitor cocktail (Roche, Indianapolis, IN) and 4-amidinophenylmethanesulfonyl fluoride hydrochloride (APMSF) (Sigma-Aldrich, St. Louis, MO). Cells were broken by passing through an Avestin homogenizer at the pressure of 35 kpsi, cell lysate was cleared by centrifugation at 8,000 g for 15 min and membranes were isolated by ultracentrifugation at 190,000 g for 1 hr. Membrane pellets were re-suspended in PBS buffer supplemented with protease inhibitors and 200 mM sucrose, flash-frozen in liquid nitrogen and stored at -70°C until RTx binding measurements.\nS. cerevisiae cells overexpressing TRPV1 constructs to be used in ligand binding assays on intact cells (Figure 1E,F) were grown as for small scale expression trials. 24 hr after protein induction cells were spun down at 4000g, the supernatant was removed and the pellet resuspended in 1x PBS, normalizing OD600 to 75 for each sample, and aliquoted for storage at -80°C. ^3H-RTx binding assays on cells were performed at 37°C as previously described ([Feng et al., 2015]), but where non-specific binding of RTx was measured using cells expressing GFP alone. The binding of RTx to TRPV1 and TRPV2 in membranes (e.g. Figure 2A,B and 5C) was performed at 37°C unless otherwise stated using membranes prepared from large scale protein preparations of S. cerevisiae containing rat TRPV1 and TRPV2 with a 1D4 tag expressed using a constitutive promoter as in [Moiseenkova-Bell et al., 2008]. Data for binding of RTx to membranes was corrected for non-specific binding, determined using either excess non-radioactive ligand or heat inactivation of the protein, as previously described ([Feng et al., 2015]). The TRPV1-activating double-knot toxin (DkTx) was produced recombinantly, folded in vitro and purified as previously described ([Bae et al., 2012]). Yeast membranes were incubated with DkTx solution for 1 hr at 4°C with gentle agitation prior to undertaking RTx binding assays. […]"}}}
{"molecule": "NCCOB(c1ccccc1)c1ccccc1", "note": "[2-APB, 2-aminoethoxydiphenyl borate]", "values": [{"measurement": "channel activation by 2-APB", "setting": "[1]", "result": "retaining sensitivity"}, {"measurement": "channel activation by 2-APB", "setting": "WT TRPV1; 2 mM 2-APB, +60 and -60 mV", "result": "reversible activation"}, {"measurement": "channel activation by 2-APB", "setting": "WT TRPV2", "result": "could be activated"}]}
{"molecule": "N.N.N.N.N.N.N.N.N.N.N.N.N.N.[Cl-].[Cl-].[Cl-].[Cl-].[Cl-].[Cl-].[O-2].[O-2].[Ru+3].[Ru+3].[Ru+4]", "note": "[RR, ruthenium red]", "values": [{"measurement": "inhibition of RTx-activated currents by RR", "setting": "WT TRPV1; 50 µM RR after 100 nM RTx", "result": "blocked the RTx-activated currents"}]}
{"molecule": "COc1cc(CNC(=O)CCCC/C=C/C(C)C)ccc1O", "note": "[capsaicin]", "values": [{"measurement": "sensitivity to capsaicin", "setting": "TRPV2", "result": "insensitive to capsaicin"}, {"measurement": "channel activation by capsaicin", "setting": "TRPV2 QM", "result": "remained insensitive"}]}
{"molecule": "B1", "values": [{"measurement": "enhancement of the affinity for RTx by DkTx", "setting": "[2]", "result": "about 3 fold"}]}
